Here are results for 10 molecules from US12509437B2, “Substituted thiophene carboxamides and derivatives thereof as microbicides” (Bayer Aktiengesellschaft, priority 2019, dated 2025).

Data set [1] has as its system Pseudomonas syringae pv. tomato. In words: In vivo preventive test on Pseudomonas syringae pv. tomato (bacterial speck on tomato). As to conditions: sprayed 72 hours before inoculation, evaluated 5 or 6 days after inoculation, read-out: efficacy; for pest or weed control at 500 ppm: 500 ppm of active ingredient; for pest or weed control at 125 ppm: 125 ppm of active ingredient. As to the method:
The tested active ingredients were prepared by homogenization in a mixture of acetone/Dimethyl sulfoxide/Tween®, and then diluted with water to obtain the desired active material concentration.
The young plants of tomato were treated by spraying the active ingredient prepared as described above. Control plants were treated only with an aqueous solution of acetone/Dimethyl sulfoxide/Tween®.
After 72 hours, the plants were contaminated by spraying the leaves with an aqueous bacteria suspension of Pseudomonas syringae pv. tomato. The contaminated tomato plants were incubated for 4 days in saturated atmosphere at 22° C. day/20° C. night−70% HR and then for 1 or 2 days at 22° C. day/20° C. night at 70-80% relative humidity.
The test was evaluated 5 or 6 days after the inoculation. 0% means an efficacy which corresponds to that of the control plants while an efficacy of 100% means that no disease was observed.

Data set [2] has as its system Xanthomonas campestris pv. campestris. The data set can be described thus: In vivo preventive test on Xanthomonas campestris pv. campestris (black rot on cabbage). The note with it: sprayed 72 hours before inoculation, evaluated 8 or 10 days after inoculation; for pest or weed control at 500 ppm: 500 ppm of active ingredient. In outline: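 Young cabbage plants sprayed preventively with compound formulated in acetone/DMSO/Tween and diluted in water, then inoculated 72 h later with a bacterial spray. Kept at 27° C, 95% relative humidity; disease scored after 8 or 10 days as % efficacy versus solvent-treated controls (0% = control, 100% = no disease).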

The next data set relates to Peronospora parasitica. In words: In vivo preventive test on Peronospora parasitica (Crucifer downy mildew) on cabbage. As to conditions: Hyaloperonospora parasitica, 120 h, sprayed 72 hours before inoculation, evaluated 5 days after inoculation, read-out: efficacy; for pest or weed control at 125 ppm: 125 ppm of active ingredient; for pest or weed control at 31 ppm: 31 ppm of active ingredient; for pest or weed control at 500 ppm: 500 ppm of active ingredient. A digest of the protocol: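 Young cabbage plants were sprayed with compound in aqueous acetone/DMSO/Tween, then inoculated 72 h later with P. parasitica spores and held 5 days at 20 °C, 100% RH. Efficacy scored 5 days post-inoculation: 0% equals solvent-treated controls, 100% means no disease.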

In data set [3] the test system is Colletotrichum lindemuthianum. The data set can be described thus: In vivo preventive test on Colletotrichum lindemuthianum (Anthracnose on bean). As to conditions: sprayed 72 hours before inoculation, evaluated 6 days after inoculation; for pest or weed control at 125 ppm / pest or weed control at 500 ppm: Colletotrichum lindemuthianum, 144 h, read-out: efficacy; for pest or weed control at 500 ppm: 500 ppm of active ingredient. In outline: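 Young bean plants were sprayed with compound in acetone/DMSO/Tween diluted in water, then inoculated 72 h later with C. lindemuthianum spores. Incubation was 24 h at 20 °C/100% RH, then 5 days at 20 °C/90% RH. Efficacy scored 6 days post-inoculation: 0% equals solvent-treated control, 100% means no disease.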

In the next data set the test system is Uromyces appendiculatus. In words: In vivo preventive test on Uromyces appendiculatus (bean rust). As to conditions: 240 h, sprayed 72 hours before inoculation, evaluated 10 days after inoculation, read-out: efficacy; for pest or weed control at 31 ppm: 31 ppm of active ingredient; for pest or weed control at 500 ppm: 500 ppm of active ingredient; for pest or weed control at 125 ppm: 125 ppm of active ingredient. A digest of the protocol:
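Young bean plants sprayed with compound in acetone/DMSO/Tween diluted in water, then inoculated 72 h later with spore suspension. Incubated 24 h at 20° C., 100% RH, then 9 days at 20° C., 70-80% RH. Efficacy scored 10 days post-inoculation, 0% = untreated-control level, 100% = no disease.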

The test system of data set [4] is Colletotrichum lindemuthianum. The data set can be described thus: Colletotrichum lindemuthianum in vitro cell test. Format: cell-based. As to conditions: 144 h, 6 days incubation, read-out: efficacy (inhibition of fungal growth; no direct activity); for inhibition at 5 ppm: 5 ppm of active ingredient. A digest of the protocol: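 C. lindemuthianum spore suspension grown in liquid glucose/peptone/yeast-extract medium with compound (final DMSO ≤1%). After 6 days, mycelial growth measured by absorbance; inhibition calculated versus fungicide-free control wells.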

The test system of a further data set is Alternaria alternata. In words: Alternaria alternata in vitro cell test. As to conditions: 120 h, 5 days incubation, read-out: efficacy (inhibition of fungal growth; no direct activity); for inhibition at 5 ppm: 5 ppm of active ingredient; for inhibition at 20 ppm: 20 ppm of active ingredient. Format: cell-based. In outline: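 A. alternata spores in glucose/peptone/yeast-extract liquid medium were exposed to DMSO-solubilized compound (final DMSO ≤1%). After 5 days incubation, mycelium growth read spectrometrically; inhibition derived from absorbance relative to fungicide-free control wells.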

Data set [5] relates to salicylate responsive promoter sequence of the PR1 (pathogenesis-related protein I) gene (AT2G14610). The data set can be described thus: Induction of defense gene expression in Arabidopsis thaliana (PR1 promoter-GFP reporter plants). In kind it is in vivo. The note with it: 72 h, 3rd day after spraying, mock treated leaves set as 1.00, read-out: relative fluorescence value. A digest of the protocol:
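Transgenic A. thaliana carrying GFP under the salicylate-responsive PR1 promoter, grown five days, then sprayed with compounds. Whole-plant fluorescence imaged and quantified on day 3 post-spray, expressed relative to mock-treated leaf background set at 1.00.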

The test system of data set [6] is Xanthomonas campestris pv. campestris. In words: Xanthomonas campestris pv. campestris in vitro cell test. The note with it: 24 h of incubation, read-out: efficacy (inhibition of bacteria growth; no direct activity); for inhibition at 5 ppm: 5 ppm of active ingredient; for inhibition at 20 ppm: 20 ppm of active ingredient. In kind it is cell-based. A digest of the protocol:
(§1)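 Bacteria from liquid pre-culture diluted to set OD in LB broth and exposed to compounds dissolved in DMSO (final ≤1%). After 24 h, growth read by absorbance; inhibition derived relative to compound-free control wells.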

For data set [7], the system named is Pseudomonas syringae pv. tomato. The data set can be described thus: Pseudomonas syringae pv. tomato in vitro cell test. In kind it is cell-based. The note with it: 20 ppm of active ingredient, 24 h of incubation, read-out: efficacy (inhibition of bacteria growth; no direct activity). In outline: as §1
Data set [8] can be described thus: LogP by HPLC on reversed phase columns (EEC directive 79/831 Annex V.A8). In kind it is physicochemical. The note with it: reversed phase HPLC columns; method [a]. A digest of the protocol: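 Reversed-phase HPLC, calibrated with straight-chain alkan-2-ones (C3–C16) of known LogP; values by linear interpolation of retention times between successive alkanones. Multiple values from one method are joined by "+"; lambda-max taken from 200–400 nm UV spectra at chromatographic peaks.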

Where [9] appears, read: Xanthomonas campestris, 31 ppm of active ingredient, read-out: efficacy.
The mark [10] stands for this setting: Xanthomonas campestris, read-out: efficacy.

Marks after values point to notes of the source that are not given here. Some results are limits rather than exact numbers.

Consider `O=C(NC1(C(=O)O)CC1)c1cc(Br)c(Br)s1` [CMP1, reference compound], for which the pest or weed control at 500 ppm in data set [1] and in data set [2] (setting [10]) was 0% throughout. Besides, the efficacy in [2] (31 ppm of active ingredient) is on record as 10* %. The pest or weed control at 31 ppm in [2] (setting [9]) was 10%.

In the case of `CCOC(=O)C1(NC(=O)c2cc(Br)c(Br)s2)CC1` [CMP2, reference compound], the pest or weed control at 500 ppm in data set [1] is less than 40%; in data set [3], 0%; in data set [2] (setting [10]), 0%; with Uromyces appendiculatus, less than 30%. Further, the pest or weed control at 125 ppm was less than 30% with Peronospora parasitica and 0% in data set [3] (125 ppm of active ingredient). Moreover, the pest or weed control at 31 ppm in data set [2] (setting [9]) is 0%; in the data set with Uromyces appendiculatus, less than 40%.

Regarding `O=C(NC(C(=O)O)C1CC1)c1cc(Cl)c(Cl)s1` (stereo not drawn) [CMP9, reference compound], the pest or weed control at 125 ppm was 34% in [1], 30% in data set [3] (125 ppm of active ingredient) and less than 40% in the data set on Uromyces appendiculatus. Besides, the efficacy in data set [3] (125 ppm of active ingredient) was 30* %. Moreover, the pest or weed control at 31 ppm in data set [2] (setting [9]) was less than 20%. In data set [2] (setting [10]), the pest or weed control at 500 ppm worked out at 0%.

`COC(=O)C(NC(=O)c1cc(Br)c(Br)s1)C1CC1` (stereo not drawn) [CMP10, reference compound]: the pest or weed control at 125 ppm in data set [1] was less than 40%. Also, the pest or weed control at 31 ppm in the data set with Peronospora parasitica was less than 30%; in data set [2] (setting [9]), less than 30%; in the data set on Uromyces appendiculatus it was 0%.

For `COC(=O)CC[C@H](NC(=O)c1cc(Cl)c(Cl)s1)C(=O)OC` [CMP12, reference compound], the pest or weed control at 31 ppm in data set [1] (31 ppm of active ingredient) is 10%. Further, the pest or weed control at 125 ppm in [3] (125 ppm of active ingredient) was less than 20%.

On to `COC(=O)[C@H](CCCNC(=N)N)NC(=O)c1sc(Cl)c(Cl)c1C` [I.079], for which the pest or weed control at 500 ppm in data set [1] is 70 to 79%; in the data set with Peronospora parasitica it was 90 to 100%; in the data set with Uromyces appendiculatus it was 80 to 89%. The pest or weed control at 31 ppm is 80 to 89% in the data set on Peronospora parasitica and 70 to 79% in data set [2] (setting [9]). Moreover, the pest or weed control at 125 ppm with Peronospora parasitica lay in the range of 90 to 100%. Also, the inhibition at 5 ppm (in [4]; in the data set on Alternaria alternata; in data set [6]) was not above 30% each time. Also, the inhibition at 20 ppm in data set [4] (20 ppm of active ingredient), in data set [6] and in data set [7] was not above 30% each time. Also, the fold induction at 300 ppm in data set [5] is more than 2. The chromatographic logP in data set [8] stood at 1.68.

For `COC(=O)C(CC(F)F)NC(=O)c1sc(Br)c(Br)c1C` (stereo not drawn) [I.108], the pest or weed control at 500 ppm in data set [1] lay within 70 to 79%; in the data set with Peronospora parasitica, 90 to 100%; in data set [3], 90 to 100%; in the data set with Uromyces appendiculatus, 90 to 100%. The pest or weed control at 31 ppm in the data set with Peronospora parasitica was 70 to 79%. Besides, the pest or weed control at 125 ppm lay within 70 to 79% in the data set with Peronospora parasitica, 80 to 89% in [3] (125 ppm of active ingredient) and 90 to 100% with Uromyces appendiculatus. Also, the inhibition at 5 ppm (in the data set with Alternaria alternata; in data set [6]) was not above 30% each time. For the same molecule, the inhibition at 20 ppm (with Alternaria alternata; in data set [6]; in [7]) was not above 30% in each case. Moreover, the fold induction at 75 ppm in [5] was more than 2. In addition, in [5], the fold induction at 300 ppm was more than 2. This molecule returned a chromatographic logP in data set [8] of 3.33.

`CCSC(=O)C1(NC(=O)c2sc(Br)c(Br)c2C)CC1` [I.128]: the pest or weed control at 500 ppm in data set [1] is 70 to 79%; in the data set on Peronospora parasitica it was 90 to 100%; with Uromyces appendiculatus, 90 to 100%. For the same molecule, in the data set on Peronospora parasitica, the pest or weed control at 125 ppm lay within 90 to 100%. The fold induction at 75 ppm in [5] is more than 2. The fold induction at 300 ppm in [5] was more than 2. The molecule also came in with a chromatographic logP in data set [8] of 3.81.

For the molecule `Cc1c(C(=O)NC2(C(=O)O)CCC2)sc(Br)c1Br` [I.137], the pest or weed control at 500 ppm in data set [1] was 70 to 79%; with Peronospora parasitica, 90 to 100%; in data set [3] it was 90 to 100%; in [2] (setting [10]), 90 to 100%; in the data set on Uromyces appendiculatus, 90 to 100%. Moreover, in the data set with Peronospora parasitica, the pest or weed control at 31 ppm fell in the range of 70 to 79%. Moreover, the pest or weed control at 125 ppm in the data set on Peronospora parasitica fell in the range of 90 to 100%; in [2] (Xanthomonas campestris, 125 ppm of active ingredient, read-out: efficacy) it was 90 to 100%; in the data set with Uromyces appendiculatus, 90 to 100%. For the same molecule, the fold induction at 75 ppm in data set [5] was more than 2. Also, the fold induction at 300 ppm in data set [5] was more than 2. In addition, the chromatographic logP in data set [8] was found to be 2.63.

Consider `COC(=O)C(C)(C)NC(=O)c1sc(Cl)c(Cl)c1C` [I.176], for which the pest or weed control at 125 ppm fell in the range of 70 to 79% in data set [1], 90 to 100% in the data set with Peronospora parasitica and 90 to 100% in the data set on Uromyces appendiculatus. Moreover, the results for the pest or weed control at 31 ppm in the data set on Peronospora parasitica and with Uromyces appendiculatus were 70 to 79% and 90 to 100%, respectively. The inhibition at 5 ppm (in [4]; in the data set with Alternaria alternata; in [6]) was not above 30% throughout. Further, the inhibition at 20 ppm (with Alternaria alternata; in data set [6]; in data set [7]) was not above 30% throughout. The fold induction at 75 ppm in [5] is more than 2. Further, the fold induction at 300 ppm in data set [5] is more than 2. Moreover, the chromatographic logP in [8] worked out at 3.16.
